Earlier results on one molecule are cited in US20060166974A1, “Azabenzoxazoles for the treatment of CNS disorders” (Pfizer Inc., priority 2004, published 2006).

Broadly, the half-life is how long it takes for the measured level to halve. Take `O=C1Cc2cc(CCN3CCN(c4nsc5ccccc45)CC3)c(Cl)cc2N1` [Ziprasidone, 5-[2-[4-(1,2-benzisothiazol-3-yl)piperazin-1-yl]ethyl]-6-chloroindolin-2-one]: where the note is “in vivo”, the half-life is 6 to 7 h and the protein binding entry is listed as “extensive”. In addition, for the setting “taken with food”, the Oral bioavailability entry is listed as “approximately 60%”.
